Where a SMILES comes first, the peptide text is derived from it. [ ]: non-standard residue; d: D form. Thz = O=C(O)[C@@H]1CSCN1
How the values were obtained:
Chymotrypsin [1] = target: T1, Chymotrypsin (Bos taurus, UniProt P00766); experiment: Lineweaver-Burk plot of the substrate peptide (degradation by chymotrypsin); type: biochemical; conditions: 30 minutes at 37° C.
Description: Into 1 mL of a 0.1 M phosphate buffer (pH 8.0, containing BSA (0.1 mg/mL)), 1.5 mg of the 14-residue peptide thus synthesized (SEQ ID NO:16) was dissolved to prepare a 1 mM solution. This solution was diluted to prepare substrate solutions having concentrations of 1 mM, 500 μM, 333 μM, 250 μM, and 200 μM. Separately, chymotrypsin (1 mg) was dissolved in 1 mL of a 0.1 M phosphate buffer (pH 8.0, containing BSA (0.1 mg/mL)). The resulting solution was diluted 10-fold, and further diluted 10-fold. The above operation was repeated so that a solution of 0.1 μg/mL was prepared. Into the same Eppendorf tube, 50 μL of a substrate solution of each concentration that was sufficiently cooled on ice and 50 μL of the enzyme solution were transferred, followed by incubation for 30 minutes at 37° C. After 30 minutes, the reaction was terminated by addition of 10 μL of 1N hydrochloric acid. Then, 20 μL of the resulting reaction solution was mixed with 80 μL of buffer to make up a total of 100 μL, which was then measured by HPLC. A degradation rate per unit time (a reaction rate per unit time) was calculated from the peak area of HPLC of the reaction product (FIG. 37).

Chymotrypsin [2] = target: T1, Chymotrypsin; experiment: Michaelis-Menten plot of the substrate peptide (degradation by chymotrypsin); type: biochemical; design: unit not given here; conditions: 30 minutes at 37° C.
Description: Into 1 mL of a 0.1 M phosphate buffer (pH 8.0, containing BSA (0.1 mg/mL)), 3.1 mg of the 14-residue peptide thus synthesized (SEQ ID NO:16) was dissolved to prepare a 2 mM solution. This solution was diluted to prepare substrate solutions having concentrations of 1.6 mM, 1.2 mM, 0.8 mM, 0.4 mM, 0.2 mM, 0.1 mM, and 0.05 mM. Separately, chymotrypsin (1 mg) was dissolved in 1 mL of a 0.1 M phosphate buffer (pH 8.0, containing BSA (0.1 mg/mL)). The resulting solution was diluted 10-fold, and further diluted 10-fold. The above operation was repeated so that a solution of 0.1 μg/mL was prepared. Into the same Eppendorf tube, 50 μL of a substrate solution of each concentration that was sufficiently cooled on ice and 50 μL of the enzyme solution were transferred, followed by incubation for 30 minutes at 37° C. After 30 minutes, the reaction was terminated by addition of 10 μL of 1N hydrochloric acid. Then, 20 μL of the resulting reaction solution was mixed with 80 μL of buffer to make up a total of 100 μL, which was then measured by HPLC. A degradation rate per unit time (a reaction rate per unit time) was calculated from the peak area of HPLC of the reaction product (FIG. 36).

- 1/V (inverse of the reaction rate) (Chymotrypsin [1]; 1/Substrate 2 1/mM): 7.02 mol⁻¹ min⁻¹
- 1/V (inverse of the reaction rate) (Chymotrypsin [1]; 1/Substrate 4 1/mM): 8.51 mol⁻¹ min⁻¹
- 1/V (inverse of the reaction rate) (Chymotrypsin [1]; 1/Substrate 6 1/mM): 11.9 mol⁻¹ min⁻¹
- 1/V (inverse of the reaction rate) (Chymotrypsin [1]; 1/Substrate 8 1/mM): 10.9 mol⁻¹ min⁻¹
- 1/V (inverse of the reaction rate) (Chymotrypsin [1]; 1/Substrate 10 1/mM): 14.7 mol⁻¹ min⁻¹
- V (reaction rate per unit time) (Chymotrypsin [2]; substrate 0.05 mM): 0.013
- V (reaction rate per unit time) (Chymotrypsin [2]; substrate 0.1 mM): 0.027
- V (reaction rate per unit time) (Chymotrypsin [2]; substrate 0.2 mM): 0.046
- V (reaction rate per unit time) (Chymotrypsin [2]; substrate 0.4 mM): 0.068
- V (reaction rate per unit time) (Chymotrypsin [2]; substrate 0.6 mM): 0.075
- V (reaction rate per unit time) (Chymotrypsin [2]; substrate 0.8 mM): 0.083
- V (reaction rate per unit time) (Chymotrypsin [2]; substrate 1 mM): 0.087
Compound: C[C@@H](O)[C@H](NC(=O)[C@H](CCCCN)NC(=O)[C@H](CC(N)=O)NC(=O)[C@H](CC(=O)O)NC(=O)[C@H](CO)NC(=O)CNC(=O)[C@@H]1CSCN1)C(=O)N[C@@H](Cc1ccc(O)cc1)C(=O)NCC(=O)N[C@@H](CC(N)=O)C(=O)N[C@@H](CCCCN)C(=O)N[C@@H](CS)C(=O)N[C@@H](CC(N)=O)C(=O)N[C@@H](Cc1ccccc1)C(=O)O [substrate peptide] (H-[Thz]GSDNKTYGNKCNF-OH)

From patent publication US20110262945A1, “GLYCOPROTEIN PRODUCTION METHOD AND SCREENING METHOD” (OTSUKA CHEMICAL CO., LTD., priority 2008, published 2011)
